Patent US8652231B2, “Metal complexes; use thereof for the preparation of compositions for agricultural use” (Timac Argo International, priority 2008, dated 2014)

Assay: Capacity of the test compounds for keeping iron soluble in the presence of calcium
Type: physicochemical
Conditions: 20 mg iron per liter, pH 7, 8, 9 and 10, CaCl2 0.020 M, after three days, filtered; FIG. 1
Description: For each product tested, four solutions were prepared containing 20 milligrams of iron per liter and having respectively a pH of 7, 8, 9 and 10 (the pH having been adjusted with sodium hydroxide or hydrochloric acid).
Four similar solutions were prepared, each containing calcium chloride CaCl2 (0.020 M).
After three days, these solutions were filtered through filters with a pore size of 0.045 micrometer and the iron content in the […] was determined by inductively coupled plasma emission optical spectroscopy (ICP-EOS).
The amount of iron remaining in solution in the presence of calcium ions was calculated using the following formula:
[formula] in which: [Fe]pHi+Ca represents the concentration of iron in the filtrate from a solution (containing calcium chloride 0.020 M) with pH equal to i, expressed in milligrams per liter; [Fe]pHi represents the concentration of iron in the filtrate from a solution not containing calcium with pH equal to i, expressed in milligrams per liter. Results

Citrate-Fe(III) Complex
iron remaining in solution in the presence of calcium ions: undergoes precipitation in the range of pH between the values of 9 and 10
